Data published in patent US20240002437A1, “COMPOSITIONS AND METHODS OF TREATING INFLAMMATORY LUNG DISEASES” (priority 2020, published 2024).

Assays:
mouse model of VILI = experiment: Mouse model of VILI (high tidal volume ventilation); type: in vivo; conditions: 10 mg/kg intraperitoneally 3 h before ventilation; tidal volume 35 mL/kg, 4 h
Method: Male C57BL/6 mice aged between 6 and 8 weeks were purchased from Jackson Laboratories (ME, USA). Mice were maintained at a room temperature of 22±1° C. in air with 40-70% humidity at least one week before experiments. Animals were randomly distributed into 4 groups (n=5 in each group): non-ventilated control mice with normal saline; non-ventilated control mice treated with the eNOS decoy peptide (d-peptide); high tidal volume with normal saline; high tidal volume with eNOS decoy peptide. Three hours before ventilation, saline or the eNOS decoy peptide (10 mg/kg body weight) were injected intraperitoneally. Before mechanical ventilation was initiated, mice were anesthetized using an intraperitoneal injection with a cocktail containing ketamine (100 mg/kg) and xylazine (5 mg/kg). The mice were then placed in a supine position on a heating pad to maintain body temperature. For the ventilation procedure, mice were orotracheally intubated with a 20 g intravenous indwelling catheter and attached to a small animal ventilator (SAR-1000, CWE Inc., USA). The ventilation parameters were set as follows: inspiration/expiration ratio, 33%; respiratory rate, 75 breaths/min; and tidal volume, 35 mL/kg (high tidal volume group). During mechanical ventilation, mice were maintained in deep anesthesia by injecting with ketamine (100 mg/kg) every 45 minutes for the duration of the 4 h study. Mice in the non-ventilated control group were allowed to spontaneously breathe. […] The pellets were then resuspended in 500 μl of PBS and the cell numbers present were determined using an automated cell counter. The BAL fluid was centrifuged again at 15,000× g at 4° C. for 15 min and the supernatant collected and stored at −80° C. until the protein concentration was measured. […]
Protein extracts were prepared using lysis buffer (50 mM Tris-HCl, pH 7.6, 0.5% Triton X-100, 20% glycerol) containing HALT™ protease inhibitor cocktail (Pierce Laboratories, Rockford, IL). […] Bands were quantified using LI-COR Image Station software. […]

PAEC = experiment: Mitochondrial bioenergetics (XF24 Analyzer, OCR) in PAEC; type: cell-based, ovine; conditions: 4αPDD
Method: Primary cultures of ovine pulmonary arterial endothelial cells (PAEC) were isolated as described previously (L. K. Kelly, Am J Physiol Lung Cell Mol Physiol, 286(5), L984-91 (2004)). Briefly, cells were maintained in Dulbecco's modified Eagle medium (DMEM) supplemented with 10% fetal calf serum (Hyclone, Logan, UT), antibiotics/antimycotic (500 IU Penicillin, 500 μg/ml Streptomycin, 1.25 μg/ml Amphotericin B; MediaTech, Herndon, VA) at 37° C. in a humidified atmosphere with 5% CO2 and 95% air. Cells were used for experiments between passages 9-14, seeded at ˜50% confluence, and utilized when fully confluent.
The XF24 Analyzer (Seahorse Biosciences) and XF CELL MITO STRESS™ Test Kit (#101706-100; Seahorse Biosciences) were used for the mitochondrial bioenergetic analyses. The optimum number of cells/well was determined to be 75,000/0.32 cm^2. At the end of each study, the XF24 culture microplates were incubated in a CO2-free XF prep station at 37° C. for 45 min to allow temperature and pH calibration. Subsequently, each well was sequentially injected Oligomycin (1 μM final concentration), carbonyl cyanide 4-(trifluoromethoxy) phenylhydrazone (FCCP, 1 μM final concentration), and Rotenone+antimycin A (1 μM final concentration of each) and measured the oxygen consumption rate (OCR). These agents were used to determine basal mitochondrial respiration, reserve respiratory capacity and maximal respiratory capacity measurements in pmols/min of oxygen consumed.

HRKKRRQRRITRKKTFKEVA [d-peptide]
BALF cell number (mouse model of VILI): decreases in the cell number | BALF protein levels (mouse model of VILI): decreases | increase in pT495-eNOS induced by mechanical ventilation of the mouse lung (mouse model of VILI): attenuated the increase in pT495-eNOS induced by mechanical ventilation

CCCCCCCCCC(=O)O[C@@H]1[C@@H](C)[C@@]2(O)[C@@H](C=C(CO)C[C@@]3(O)C(=O)C(C)=C[C@@H]23)[C@@H]2C(C)(C)[C@]12OC(=O)CCCCCCCCC [4αPDD, 4α-Phorbol-12,13 didecanoate]
maximum respiratory capacity (PAEC): reductions | mitochondrial basal O2 consumption (PAEC): reductions | spare respiratory capacity (PAEC): reductions
